Experimental data published in article PMC4425367 (Journal of medicinal chemistry, 2015).
Entries after “also recorded” stand apart in the source; their conditions may differ.

What was measured:
hCB2 receptor = hCB2 receptor (Homo sapiens, UniProt P34972); assay: cAMP assay, forskolin-stimulated cAMP in HEK293 cells expressing hCB2; type: cell-based; conditions: for classification hCB2: cAMP functional test
rCB1 receptor = rCB1 receptor (Rattus norvegicus, UniProt P20272); assay: cAMP assay, forskolin-stimulated cAMP in HEK293 cells expressing rCB1; type: cell-based; conditions: cAMP functional test
CB1 receptor = CB1 receptor (Rattus norvegicus, UniProt P20272); type: binding; conditions: 10Ki concentration, incubation extended to 60 min, compared with 30 min
Chain of CB1 receptor (P20272 whole entry): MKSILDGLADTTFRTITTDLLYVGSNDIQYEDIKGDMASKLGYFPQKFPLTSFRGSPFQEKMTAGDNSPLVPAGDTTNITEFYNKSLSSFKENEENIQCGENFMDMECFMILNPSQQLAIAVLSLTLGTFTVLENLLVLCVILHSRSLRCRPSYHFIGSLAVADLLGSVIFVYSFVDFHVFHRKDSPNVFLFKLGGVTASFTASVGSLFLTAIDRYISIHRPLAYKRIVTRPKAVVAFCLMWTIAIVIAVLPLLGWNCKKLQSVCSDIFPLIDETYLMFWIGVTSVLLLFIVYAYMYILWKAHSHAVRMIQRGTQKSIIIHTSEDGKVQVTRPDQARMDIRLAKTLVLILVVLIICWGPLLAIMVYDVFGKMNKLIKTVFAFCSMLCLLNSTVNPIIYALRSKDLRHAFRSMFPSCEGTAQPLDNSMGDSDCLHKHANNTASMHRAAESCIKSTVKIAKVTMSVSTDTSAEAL

Chain of rCB1 receptor (P20272 whole entry): as above
Chain of hCB2 receptor (P34972 whole entry): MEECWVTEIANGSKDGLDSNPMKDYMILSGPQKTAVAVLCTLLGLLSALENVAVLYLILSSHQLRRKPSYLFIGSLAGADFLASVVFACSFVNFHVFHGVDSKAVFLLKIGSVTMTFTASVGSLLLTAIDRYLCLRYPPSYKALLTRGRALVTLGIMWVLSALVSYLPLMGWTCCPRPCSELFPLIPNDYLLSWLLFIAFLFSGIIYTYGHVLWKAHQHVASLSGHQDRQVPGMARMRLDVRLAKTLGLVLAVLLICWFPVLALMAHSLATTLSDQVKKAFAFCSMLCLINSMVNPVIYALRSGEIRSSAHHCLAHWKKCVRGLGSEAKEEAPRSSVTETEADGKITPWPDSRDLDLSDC

COC(=O)N[C@]12CC3CC(C1)C[C@](c1cc(O)c4c(c1)OC(C)(C)[C@@H]1CC[C@@H](O)C[C@@H]41)(C3)C2 [Compound 26, Methyl {(1R,3r)-3-[(6aR,9R,10aR)-1,9-Dihydroxy-6,6-dimethyl-6a,7,8,9,10,10a-hexahydro-6H-benzo[c]chromen-3-yl]-adamantan-1-yl}carbamate]
classification hCB2 (hCB2 receptor): inverse agonist | classification rCB1 (rCB1 receptor): agonist

CC1(C)Oc2cc([C@]34CC5CC(C[C@@](C#N)(C5)C3)C4)cc(O)c2[C@@H]2C[C@H](O)CC[C@H]21 [Compound 25, (1R,3r)-3-[(6aR,9R,10aR)-1,9-Dihydroxy-6,6-dimethyl-6a,7,8,9,10,10a-hexahydro-6H-benzo[c]chromen-3-yl]-adamantane-1-carbonitrile]
classification hCB2 (hCB2 receptor): inverse agonist | classification rCB1 (rCB1 receptor): agonist

CC1(C)Oc2cc([C@]34CC5CC(C[C@@](N=C=S)(C5)C3)C4)cc(O)c2[C@@H]2C[C@H](O)CC[C@H]21 [Compound 19, (6aR,9R,10aR)-3-[(1r,3R)-3-Isothiocyanatoadamantan-1-yl]-6,6-dimethyl-6a,7,8,9,10,10a-hexahydro-6H-benzo[c]-chromene-1,9-diol]
CB1 covalent binding, 60 min incubation (CB1 receptor): no further increase | classification hCB2 (hCB2 receptor): neutral antagonists | classification rCB1 (rCB1 receptor): potent agonists; also recorded: agonist

CC1(C)Oc2cc([C@]34CC5CC(C[C@@](CC#N)(C5)C3)C4)cc(O)c2[C@@H]2C[C@H](O)CC[C@H]21 [Compound 23, 2-{(1R,3r)-3-[(6aR,9R,10aR)-1,9-Dihydroxy-6,6-dimethyl-6a,7,8,9,10,10a-hexahydro-6H-benzo[c]chromen-3-yl]-adamantan-1-yl}acetonitrile]
classification hCB2 (hCB2 receptor): inverse agonist | classification rCB1 (rCB1 receptor): potent agonists; also recorded: agonist

CC1(C)Oc2cc(C34CC5CC(CC(C5)C3)C4)cc(O)c2[C@@H]2C[C@H](O)CC[C@H]21 [Compound 27, reference compound]
classification rCB1 (rCB1 receptor): agonist

CC1(C)Oc2cc([C@]34CC5CC(C[C@@](CN=C=S)(C5)C3)C4)cc(O)c2[C@@H]2C[C@H](O)CC[C@H]21 [Compound 16, (6aR,9R,10aR)-3-[(1r,3R)-3-(Isothiocyanatomethyl)-adamantan-1-yl]-6,6-dimethyl-6a,7,8,9,10,10a-hexahydro-6H-benzo[c]chromene-1,9-diol]
classification hCB2 (hCB2 receptor): inverse agonist | classification rCB1 (rCB1 receptor): potent agonists; also recorded: agonist

CC1(C)Oc2cc([C@]34CC5CC(C[C@@](N=[N+]=[N-])(C5)C3)C4)cc(O)c2[C@@H]2C[C@H](O)CC[C@H]21 [Compound 20, (6aR,9R,10aR)-3-[(1r,3R)-3-Azidoadamantan-1-yl]-6,6-di-methyl-6a,7,8,9,10,10a-hexahydro-6H-benzo[c]chromene-1,9-diol]
classification hCB2 (hCB2 receptor): neutral antagonists | classification rCB1 (rCB1 receptor): potent agonists; also recorded: agonist

CCCCCCC(C)(C)c1ccc([C@@H]2C[C@H](O)CC[C@H]2CCCO)c(O)c1 [CP-55,940, reference compound]
classification hCB2 (hCB2 receptor): full agonist; also recorded: potent agonist

CC1(C)Oc2cc([C@]34CC5CC(C[C@@](CN=[N+]=[N-])(C5)C3)C4)cc(O)c2[C@@H]2C[C@H](O)CC[C@H]21 [Compound 17, (6aR,9R,10aR)-3-[(1r,3R)-3-(Azidomethyl)adamantan-1-yl]-6,6-dimethyl-6a,7,8,9,10,10a-hexahydro-6H-benzo[c]-chromene-1,9-diol]
response of forskolin-stimulated cAMP accumulation, hCB2 (hCB2 receptor; HEK293 cells expressing hCB2, up to a 3 μM concentration): no response | classification hCB2 (hCB2 receptor): neutral antagonists | classification rCB1 (rCB1 receptor): agonist
